In this experiment the target is T1, Bovine liver catalase (Bos taurus, UniProt P00432).
T1 construct: Bovine liver catalase was also purchased from Sigma-Aldrich; purchased Sigma-Aldrich; host or cells: bovine liver
T1 sequence (P00432 2-527 limits assumed): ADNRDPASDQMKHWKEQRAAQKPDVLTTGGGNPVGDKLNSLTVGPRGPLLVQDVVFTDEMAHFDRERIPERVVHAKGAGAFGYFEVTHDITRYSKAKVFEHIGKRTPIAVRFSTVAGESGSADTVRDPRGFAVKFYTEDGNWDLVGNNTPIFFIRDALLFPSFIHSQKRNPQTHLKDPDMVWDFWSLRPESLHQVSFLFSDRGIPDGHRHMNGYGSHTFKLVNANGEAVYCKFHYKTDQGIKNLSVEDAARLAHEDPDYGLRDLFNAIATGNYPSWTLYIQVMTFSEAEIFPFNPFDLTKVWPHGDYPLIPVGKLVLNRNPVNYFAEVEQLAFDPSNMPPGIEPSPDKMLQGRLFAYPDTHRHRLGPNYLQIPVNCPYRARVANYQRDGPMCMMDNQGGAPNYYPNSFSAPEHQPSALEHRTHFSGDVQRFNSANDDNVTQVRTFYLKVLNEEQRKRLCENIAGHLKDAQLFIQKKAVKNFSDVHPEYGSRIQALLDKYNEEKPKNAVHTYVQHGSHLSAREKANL
The experiment in a line: Time course of catalase inactivation by HCys (activity test). The format is biochemical. The settings on record: CAT + 2 mM HCys, 1 mM DTPA, pH 7.4, with the additive named (DMPO 100 mM, dimedone 4 mM, SOD 40 U); n=2±s.d. The protocol:
CAT activity was measured on an Uvikon 941 spectrophotometer equipped with a temperature controlled water bath (±1 °C) by following the disappearance of H2O2 at 240 nm over 30–120 s at 25 °C. Catalase activity was calculated based on the rate of decomposition of hydrogen peroxide, which is proportional to the reduction of the absorbance at 240 nm. Experiments were carried out in a 3 ml quartz cuvette containing 11.7 mM H2O2 in 50 mM KPi, pH 7.4±1 mM DTPA and the reaction was initiated by adding 0.3–0.6 pmoles of CAT. The effect of biological thiols on the activity of CAT under physiological conditions was determined from a solution of CAT (30–60 nM) preincubated at 25 °C for at least 120 min as a function thiol concentration (0–40 mM for HCys and Cys, 0–100 mM for GSH) in 50 mM KPi, pH 7.4, 1 mM DTPA. Control experiments (biological thiols alone) were also performed in parallel. In each case, 10 μl of the reaction mixture (biological thiols±CAT) was added to the cuvette containing the H2O2 solution to initiate the reaction. Similarly, the effect of biological thiols on the activity of CAT under pathological conditions was determined from a solution of CAT (30–60 nM) containing a 2.124±0.386 molar excess of iron that was preincubated with various concentrations of thiols (0–1 mM) for at least 120 min at 25 °C in 50 mM KP at pH 7.4. The relative half inhibitory concentration (IC50) values were obtained by plotting the relative activity of CAT (A, in per cent) as a function of the concentration of thiol-compounds (RSH) and by fitting the data with the following four parameter logistic equation: A=Amin+(Amax−Amin)/(1+([RSH]/IC50)^n), where Amax is the maximal activity of CAT (constrained at 100%), Amin is the minimum activity achieved at saturating concentration of RSH and n is the Hillslope that characterizes the slope of the curve at its midpoint. The inactivation rate (kinact, min^−1) was extracted from the time course of the inactivation of CAT bioactivity using a fixed concentration of HCys. Accordingly, a solution of CAT (3.5–5 μM) was incubated with 2 mM L-HCys in 50 mM KPi, pH 7.4, 1 mM DTPA. Aliquots (10 μl) were taken at intervals (0–480 min), diluted 1:50 in 50 mM KPi, pH 7.4, 1 mM DTPA and assayed for CAT activity as described above. […] The effect of NaSH on the consumption of H2O2 in cell lysates was determined from a solution of cell lysates (0.5–3 mg ml^−1) incubated on ice with various concentrations of NaSH (0–200 μM). […]

Data on 1 compound can be found in paper PMC5116089, “Sulfheme formation during homocysteine S-oxygenation by catalase in cancers and neurodegenerative diseases” (Nature Communications, 2016).

`NC(CCS)C(=O)O` (stereo not shown) [HCys, homocysteine]: the kinact is 0.000483 s⁻¹.

As a reminder, the kinact is the maximal first-order rate at which the target is inactivated.
